Here are results for two compounds from publication PMC3849131, “^18 F-click labeling and preclinical evaluation of a new ^18 F-folate for PET imaging” (EJNMMI Research, 2013).

One data set deals with T1, folate receptor (Homo sapiens, UniProt P15328).
T1 construct: using [^3H]folic acid and human KB cells in cell suspension; endogenous in cells; host or cells: human KB cells
As to the kind of experiment: Displacement assay with [^3H]folic acid on FR-positive human KB cells. The format is binding. Here is the method:
FR-positive human KB cells were kept under folate-deficient conditions to adjust the folate concentration levels to that of the human serum.
Figure 1 Displacement assay. […] Experiments were conducted in triplicate (n = 3).

Data set [1] is described as follows: Relative lipophilicity (capacity factor k’) by reversed-phase HPLC. The format is physicochemical. The settings on record: methanol-phosphoric acid buffer eluent, pH 2. The procedure:
The relative lipophilicity of 6 was determined as capacity factor k’ (k’ = (tretention - tsolvent) / tsolvent) by reversed-phase HPLC using a methanol-phosphoric acid buffer eluent system at pH 2. […] This method has already been described elsewhere. The capacity factor k’ (k’ = (tretention - tsolvent) / tsolvent) was determined using reversed-phase HPLC and enables different (radio)folates to be compared based on their polarity. The values determined can be used to give hint to the in vivo behavior in terms of the degree of hepatobiliary excretion by comparison with literature examples.

The test system of the next data set is KB tumor-bearing mice. Particulars: 45 min p.i., n = 4, cited from earlier work.
For data set [2] the following is noted: reversed-phase HPLC; cited from earlier work.

Like-named read-outs stand apart in the source and are kept apart here.

T1 sequence (P15328 25-257): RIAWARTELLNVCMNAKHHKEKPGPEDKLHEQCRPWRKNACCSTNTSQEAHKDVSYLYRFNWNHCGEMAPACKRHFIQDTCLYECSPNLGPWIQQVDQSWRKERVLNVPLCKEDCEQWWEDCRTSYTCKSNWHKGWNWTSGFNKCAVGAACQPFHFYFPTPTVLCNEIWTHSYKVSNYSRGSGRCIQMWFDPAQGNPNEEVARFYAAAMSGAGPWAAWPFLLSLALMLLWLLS

At folate receptor, `Nc1nc2ncc(CNc3ccc(C(=O)N[C@@H](CCC(=O)NCCOCCOCCOCCn4cc(COCCOCCOCCF)nn4)C(=O)O)cc3)nc2c(=O)[nH]1` [Compound 6] showed a half-inhibitory concentration (IC50) of 3.1 nM and an inhibitory constant (Ki) of 1.6 nM. In addition, the “capacity factor k’” value in data set [1] came out at 1.12.

Regarding `Nc1nc2ncc(CNc3ccc(C(=O)NC(CCC(=O)NCCCCn4cc(CCCC[18F])nn4)C(=O)O)cc3)nc2c(=O)[nH]1` (stereo not drawn) [^18 F-click folate], in the data set with KB tumor-bearing mice, the “Ratio of tumor to Kidney” value was 0.19 ± 1.38 and the “Ratio of tumor to Liver” value is 1.18 ± 0.69. Further, in the data set on KB tumor-bearing mice (Blood), the “%ID/g Blood” value is 0.13 ± 0.01 %ID/g. In addition, the “%ID/g Bone” value with KB tumor-bearing mice (Bone) is 0.13 ± 0.01 %ID/g. Also, the “%ID/g Feces” value in the data set on KB tumor-bearing mice (Feces) was 56.00 ± 27.64 %ID/g. The “%ID/g Gall bladder” value with KB tumor-bearing mice (Gall bladder) is 667.4 ± 530.1 %ID/g. For the same compound, the “%ID/g Heart” value in the data set on KB tumor-bearing mice (Heart) is 0.90 ± 0.22 %ID/g. The “%ID/g Intestines (empty)” value in the data set on KB tumor-bearing mice (Intestines (empty)) is on record as 19.59 ± 5.26 %ID/g. Also, in the data set on KB tumor-bearing mice (KB tumor), the “%ID/g Tumor” value was 3.13 ± 0.83 %ID/g. Besides, in the data set with KB tumor-bearing mice (Kidneys), the “%ID/g Kidneys” value is recorded as 16.53 ± 2.22 %ID/g. Besides, in the data set on KB tumor-bearing mice (Liver), the “%ID/g Liver” value was 1.71 ± 0.14 %ID/g. Moreover, the “%ID/g Lung” value with KB tumor-bearing mice (Lung) was 0.85 ± 0.04 %ID/g. Further, in the data set with KB tumor-bearing mice (Spleen), the “%ID/g Spleen” value is on record as 0.33 ± 0.12 %ID/g. Besides, the “%ID/g Stomach (empty)” value with KB tumor-bearing mice (Stomach (empty)) is reported as 2.50 ± 0.6 %ID/g. Besides, the “capacity factor k’” value in data set [2] is 2.28.
